Experimental data reported in US4902791A, “Nitrosourea derivatives, process for their preparation and medicaments containing them” (Sanofi S.A., priority 1983, dated 1990).

Tests used:
[1] = tested on: melanoma B16; assay: activity toward melanoma B16 implanted subcutaneously, I.V. route; format: in vivo, mouse; conditions: 20 mg/kg/inj. days 3, 7, 11
Procedure: The activity of the substances of the invention was also tested by administering the said substances of the invention by the I.V. route. 0.5 ml of an homogenate of the tumor (1 g/10 ml) is administered to B6C3F1 female mice by the subcutaneous (S.C. route) on day 0. The products of the invention and the substances used for comparison are administered on days 3, 7 and 11 in isotonic solution.
In Table IIA below the results are presented relating to the activity of the substance CI. 1675 administered by the I.V. route on the growth of the melanoma B16 implanted subcutaneously, in comparison with carmustine BCNU marketed under the name of BiCNU®.
In Table IIA below and in the subsequent tables, T represents the mean weight (or median) of the tumors in the treated mice, C represents the mean weight (or median) of the tumors in the control, untreated mice and the ratio T/C% corresponds to T/C×100.

[2] = tested on: colon carcinoma C38; assay: colon carcinoma C38, comparison of I.V. and I.P. routes, treatment days 8, 12, 16; format: in vivo, mouse; parameters: key to Median wt. of the tumor D20 / Median wt. of the tumor D27: median tumor weight in mg; conditions: I.P. Route, 20 mg/kg/inj.
Procedure: With a view to verifying the antitumor activity of the product of the invention CI.1671 when it is administered by the I.V. route, another experiment was performed in which this product was administered by the I.P. route and the I.V. route for the purposes of comparison.
This experiment is carried out under particularly difficult conditions, the first day of the treatment corresponding to the eighth day after the implantation of the carcinoma C38, whereas normally the treatment starts on the day of implantation of the tumor (D0) or 1 day after (D1) the implantation of the tumor.
The median weight of the tumors on the first day of treatment (day 8) is about 12 mg (tumors varying from 8 to 40 mg). The animals are treated on days 8, 12 and 16 depending on the different routes indicated. […]

[3] = tested on: leucemia L 1210 IGR; assay: "in vivo" activity on leucemia L1210 IGR, 20 mg/kg i.p. days 1, 5, 9; parameters: species or system mouse; conditions: for percentage of cured mice: surviving more than 60 days
Procedure: Female DBA2 mice were used, about 8 weeks old and weighing about 20 g from the IFFA-CREDO center (les Oncins, 69210 Arbresles)
At day "0", each mouse received intraperitoneally an inoculum of […] in a volume of 0.2 ml.
After tumoral graft, the mice were distributed at random into 21 cages of 5 animals, themselves then distributed, by drawing lots, into 6 experimental series. Within these 6 experimental series, there were constituted a control series of 6 cages and 5 experimental series of 3 cages each, and of which the mice were intended to be treated by the compounds of the invention.
(§1) The protocol was identical for the 3 tumors and the 5 compounds of the invention to be tested.
(§2) As regards the experimental series to be treated, each mouse received, at days 1, 5 and 9, intraperitoneally, a dose of 20 mg/kg of the compound to be tested, in the volume of 0.2 ml of neutralized and sterilized olive oil.
(§3) As regards the control series, each mouse received, intraperitoneally, 0.2 ml of neutralized and sterilized olive oil.
(§4) The results are expressed by the relative increase in survival (T/C×100) calculated from the average survival of the treated animals (T) and that of the control animals (C)
(§5) The mice surviving more than 60 days were considered as cured.
(§6) The figures between parentheses indicate the percentage of cured mice.

[4] = tested on: Tumor LEWIS 3LL; assay: "in vivo" activity on Lewis tumor, 20 mg/kg i.p. days 1, 5, 9; parameters: species or system mouse; conditions: for percentage of cured mice: surviving more than 60 days
Procedure: Procedure was under the conditions which have just been described previously with regard to melanoma B16, by injecting the tumor cells, in the proportion of 2×10^6 per mouse, in the volume of 0.2 ml.
as §1, §2, §3, §4, §5, §6

[5] = tested on: melanoma B16; assay: "in vivo" activity on melanoma B16, 20 mg/kg i.p. days 1, 5, 9; parameters: species or system mouse; conditions: for percentage of cured mice: surviving more than 60 days
Procedure: Female C57 B 1/6 mice were used, about 8 weeks old and weighing about 20 g, from the IFFA-CREDO center.
At day "0", each mouse received intraperitoneally an inoculum of 2×10^6 tumor cells in a volume of 0.5 ml.
After tumoral graft, distribution at random was carried out as indicated above, to obtain a control series of 8 cages and 5 experimental series of 4 cages each, and of which the mice were intended to be treated by the compounds of the invention.
as §1, §2, §3, §4, §5, §6

[6] = tested on: L 1210 USA Tumor; assay: "in vivo" activity on L1210 U.S.A. tumor, 5 mg/kg i.p. days 1, 5, 9; parameters: species or system mouse
Procedure: The tumor L1210 U.S.A. is more resistant than tumor L1210 IGR.
(§7) The experiments were identical to those described in preceding paragraph 4 but lower doses were used.
There were inoculated into the mice, 10^5 tumor cells of L1210 U.S.A. intraperitoneally in a volume of 0.2 ml.
At days 1, 5 and 9, the compounds of the invention under test were injected intraperitoneally, at a lower dose than that used in the experiment described at 4, that is to say in the proportion of 5 mg/kg.

[7] = tested on: L 1210 IGR TUMOR; assay: "in vivo" activity on L1210 IGR tumor, 5 mg/kg i.p. days 1, 5, 9; parameters: species or system mouse
Procedure: as §7
The same protocol was carried out with the tumor L1210 IGR, by inoculating 10^5 tumor cells of L1210 IGR intraperitoneally in the volume of 0.2 ml then, at days 1, 5 and 9, there were injected intraperitoneally 5 mg/kg of each of the compounds to be tested.

[8] = tested on: L 1210 cells; assay: cytotoxic index after 1 h contact, potential "in vivo" activity (TEST N° 2); format: cell-based, mouse
Procedure: The test used is that of W. J. Durkin et al. Cancer Research 1979, 39, 402-407, modified.
All the nitrosoureas were dissolved in 70% ethanol in the proportion of 10 mg/ml.
2--Determination of the potential "in vivo" activity
L 1210 cells, under conditions similar to the preceding protocol, were contacted for 1 hour with a dose of the various products tested corresponding to a cytotoxic index equal to 20%. After this time, the cells were placed in culture medium not containing nitrosoureas and incubated at 37° C. After 48 hours, the cytotoxic index was determined.

[9] = toxicological results, single I.P. dose, DL0 and DL50; format: in vivo, mouse; conditions: mice
Text: DL0, DL50, single I.P. dose administered to the aforementioned strains of mice.

[10] = tested on: L1210 U.S.A.; assay: antitumor activity on leukemia L1210 U.S.A., products of examples 33-39, I.P.; format: in vivo, mouse
Procedure: The experiments were always carried out on female mice which were specific pathogen-free (S. P. F.),
either of the line DBA/2JIco
or of the line B6 D2 F1/JIco (first generation hybrids between the lines C57BL/6 and DBA/2).
On the day of the graft (by convention day 0=D0) an inoculum of 1×10^5 tumor cells in a volume of 0.2 ml is administered to each mouse by the intraperitoneal route (I.P.).
This inoculum is prepared by diluting ascites fluid taken from the peritoneum of a donor female mouse in NCTC 109 medium (Eurobio Laboratories, Paris, France), counting of the cells in a MALASSEZ cell under a microscope and adjustment of the concentration to 5×10^5cells […] by means of the same medium.
The tumor line is an American strain of the line L1210.
After the tumor graft, the mice are distributed at random in cages of 5 animals. Subsequently, these cages containing 5 mice are themselves distributed at random into a control group (control) and groups treated with the I.C. products.
The doses of the products of the invention used in the different experiments are expressed in milligrams per kilogram of body weight.
The products to be injected were dissolved in isotonic sodium chloride solution.
2 protocols for treatment were used in the different experiments:
either a single injection on D1, by the intraperitoneal (I.P.) or intravenous (I.V.) route,
or 3 I.P. injections on D1, D5, D9.
In each experiment the animals of the control group received 1 or more injections, depending on the experimental protocol used, by the same route (I.P. or I.V.) of the same volume (0.2 ml/20 g) of the vehicle without the active principle (isotonic sodium chloride solution).
the number and percentage of the total of the mice surviving to D60,
the T/C×100 for the treated groups.
T representing the mean survival time of the mice in the treated group,
C representing the mean survival time of the mice in the control group (controls).

[11] = tested on: colon carcinoma C38; assay: activity on colon carcinoma C38 implanted subcutaneously, I.P. days 2 and 9; format: in vivo, mouse; conditions: I.P.
Procedure: A tumor fragment is implanted on day 0 in female B6 D2 F1 mice (19-22 g). The treatment with all of the products is administered by the I.P. route on days 2 and 9 (which is a delayed treatment). The weight of the tumors is calculated on day 20.

[12] = DBA2, I.P. D1, D5, D9, 3×10 mg/kg
[13] = DBA2, I.P. D1, D5, D9, 3×2.5 mg/kg

SMILES: O=NN(CCCl)C(=O)NCCCl [BCNU, (1,3-bis-2-chloroethyl)-1-nitrosourea, reference compound]
- Median weight of the tumor on day 3 [1]: 40 mg
- Median weight of the tumor on day 30 [1]: 2 581 mg
- T/C on day 30 (tumor weight) [1]: 33,0%
- Median wt. of the tumor D20 [2]: 196
- Median wt. of the tumor D27 [2]: 274
- Mice without tumor/total D20 [2]: 0/8
- Mice without tumor/total D27 [2]: 0/6
- T/C % D20 [2]: 34%
- T/C % D27 [2]: 21%

SMILES: CO[C@@H]1C[C@@H](NC(=O)N(CCCl)N=O)[C@H](O)[C@@H](CO)O1 [IC 1184, Methyl 3-[3-(2-chloroethyl) 3-nitrosoureido] 2,3-didesoxy α-D-arabinohexopyranoside]
- relative increase in survival (T/C×100) [3]: 556
- percentage of cured mice [3]: 47%
- relative increase in survival (T/C×100) [4]: .infin. (The sign 00 indicates that 50% at least of the mice were cured)
- percentage of cured mice [4]: 90%
- relative increase in survival (T/C×100) [5]: 235
- percentage of cured mice [5]: 15%
- Average survival ±2 σm [6]: 18 ± 1,19
- Median survival [6]: 17,8
- T/C × 100 (average survival) [6]: 209
- T/C × 100 (median survival) [6]: 205
- Median survival [7]: 24
- T/C × 100 (average survival) [7]: 378
- T/C × 100 (median survival) [7]: 265

SMILES: CO[C@@H]1C[C@@H](NC(=O)N(CCCl)N=O)[C@H](O)[C@@H](CNC(=O)N(CCCl)N=O)O1 [IC 1374, Methyl bis 3,6-[3-(2-chloroethyl) 3-nitrosoureido] 2,3,6-tridesoxy α-D-arabinohexopyranoside]
- CYTOTOXIC INDEX ([8]; 1 hour contact at dose giving 20% index, read after 48 hours): 71%
- POTENTIAL "IN VIVO" ACTION ([8]; active if cytotoxic index ≥40%): + (if the cytotoxic index was equal to or greater than 40%, the product concerned would be active "in vivo" in the mouse)
- relative increase in survival (T/C×100) [3]: .infin. (The sign 00 indicates that 50% at least of the mice were cured)
- percentage of cured mice [3]: 67%
- relative increase in survival (T/C×100) [4]: .infin. (The sign 00 indicates that 50% at least of the mice were cured)
- percentage of cured mice [4]: 75%
- relative increase in survival (T/C×100) [5]: 246
- percentage of cured mice [5]: 10%
- Average survival ±2 σm [6]: 12,9 ± 0,55
- Median survival [6]: 13,1
- T/C × 100 (average survival) [6]: 150
- T/C × 100 (median survival) [6]: 151
- Average survival ±2 σm [7]: 17,1 ± 2,10
- Median survival [7]: 16,75
- T/C × 100 (average survival) [7]: 189
- T/C × 100 (median survival) [7]: 185

SMILES: CO[C@H]1O[C@H](C)C[C@H](NC(=O)N(CCCl)N=O)[C@H]1O [IC. 85-1590, methyl 3-[3-(2-chloroethyl) 3-nitroso-ureido] 3,4,6-trideoxyα-D-xylo-hexopyranoside]
- DL0 [9]: ≥ 25 mg/kg

SMILES: CO[C@H]1C[C@@H](NC(=O)N(CCCl)N=O)[C@H](O)[C@@H](C)O1 [IC. 85-1625, methyl 3-[3-(2-chloroethyl) 3-nitrosoureido] 2,3,6-trideoxyβ-L-arabino-hexopyranoside]
- Number of survivors at D60 [10, 12]: 0/10
- T/C [10, 12]: 190
- DL0 [9]: ≥ 40 mg/kg

SMILES: CO[C@@H]1O[C@@H](C)C[C@@H](NC(=O)N(CCCl)N=O)[C@@H]1O [IC. 85-1626, methyl 3-[3-(2-chloroethyl) 3-nitrosoureido] 3,4,6-trideoxyα-L-xylo-hexopyranoside]
- Number of survivors on D60 ([10]; DBA2, I.P. D1, 1×20 mg/kg): 3/10
- Number of survivors on D60 [10, 13]: 0/10
- T/C [10, 13]: 150
- Number of survivors at D60 [10, 12]: 3/10
- T/C [10, 12]: 275
- DL0 [9]: ≥ 20 mg/kg
- LD50 ([9]; mouse, in vivo, ip): ~40 mg/kg

SMILES: CO[C@H]1O[C@@H](C)C[C@@H](NC(=O)N(CCCl)N=O)[C@@H]1O [IC. 85-1627, methyl 3-[3-(2-chloroethyl) 3-nitrosoureido] 3,4,6-trideoxyβ-L-xylo-hexopyranoside]
- Number of survivors on D60 ([10]; DBA2, I.P. D1, 1×20 mg/kg): 3/10
- Number of survivors on D60 [10, 13]: 0/10
- T/C [10, 13]: 141
- Number of survivors at D60 [10, 12]: 6/10
- T/C [10, 12]: > 600
- DL0 [9]: ≥ 40 mg/kg

SMILES: CN(C)S(=O)(=O)CCNC(=O)N(CCCl)N=O [TCNU, reference compound]
- Number of mice without tumor/total ([11]; 7.5 mg/kg/inj. days 2 and 9): 2/10
- T/C ([11]; 7.5 mg/kg/inj. days 2 and 9): 65%
- Weight of the tumor on day 20 ([11]; 7.5 mg/kg/inj. days 2 and 9): 266 mg
- Number of mice without tumor/total ([11]; 15 mg/kg/inj. days 2 and 9): 7/10
- T/C ([11]; 15 mg/kg/inj. days 2 and 9): 0%
- Weight of the tumor on day 20 ([11]; 15 mg/kg/inj. days 2 and 9): 0 mg
- dead mice (remarks) ([11]; 30 mg/kg/inj. days 2 and 9): 10
